We go through 22 compounds from US4350702A, “Method of inhibiting platelet aggregation” (Beecham Group Limited, priority 1975, dated 1982).

Structures can show the parent of a compound that is named as a salt.

In one test the test system is platelet aggregation in response to collagen (human platelet-rich plasma). As to the kind of experiment: Inhibition of collagen-induced platelet aggregation in vitro (human platelet-rich plasma, photometric aggregometer). It counts as cell-based. The following applies: 0.05 h, final concentration 100 μM, human PRP, 37°, 3 min incubation before collagen, just-maximal collagen dose, read-out: % Inhibition of the platelet aggregation response to collagen. How it is done:
The compounds of the Examples above were tested for their ability to inhibit platelet aggregation in vitro as follows:
Platelet-rich-plasma (PRP) is prepared by centrifuging the anti-coagulated blood at 180 g., for 12 minutes, at room temperature. Collagen (3×-bovine achilles tendon) is suspended in 0.9% (w/v) saline, using a commercially available mixer emulsifier. PRP was mixed with 0.1 volumes saline (control) or compound dissolved in saline and incubated at 37° for 3 minutes, before the addition of collagen. Water-insoluble compounds were added to PRP, dissolved in 0.005 volumes dimethylformamide, the solvent being included in controls when appropriate. The final concentration of each compound was 100 μM.
The activity of each compound was expressed as percentage inhibition of the aggregation response to a dose of collagen producing a just-maximal change in light transmission in control PRP.
One may read the inhibition as the relative decrease from the control value, in per cent. For `O=c1c2cc(Cl)ccc2sn1CCc1ccccn1` [Example 1, 5-Chloro-2[β-(2-pyridyl)ethyl]-1,2-benzisothiazol-3-one hydrochloride], the inhibition at 100 µM amounted to 100%. Same read-out and setting: the result for `O=c1c2ccccc2sn1CCCCCCN1CC2CCC(CC2)C1` [Example 2, 2-[6-(3-azabicyclo[3.2.2]non-3-yl)-hexyl]-1,2-benzisothiazlol-3-one hydrochloride] reads 100%; that for `COc1cc2sn(CCc3ccccn3)c(=O)c2cc1OC` [Example 3, 5,6-Dimethoxy-2[β-(2-pyridyl)ethyl]-1,2-benzisothiazol-3-one], 100%. On the same count and under the same terms, the result for `O=c1c2ccccc2sn1CNc1ccccn1` [Example 4, 2-[2'-Pyridylaminomethyl]-1,2-benzisothiazol-3-one] reads 100%; that for `O=c1c2ccccc2sn1N1CCOCC1` [Example 5, 2-(morpholino)-1,2-benzisothiazol-3-one], 100%.

On to `O=c1c2cc(Cl)ccc2sn1-c1ccccn1` [Example 6], for which the inhibition at 100 µM was 100%.

With `O=c1c2cc(Cl)ccc2sn1-c1ncccn1` [Example 7], the inhibition at 100 µM came out at 100%. The same measure, in the same setting: the result for `O=c1c2ccccc2sn1CCc1ccccn1` [Example 9, 2-(β-2'-pyridylethyl)-1,2-benzisothiazol-3-one hydrochloride] reads 100%; that for `Cc1ccc2sn(CCc3ccccn3)c(=O)c2c1` [Example 10, 5-methyl-2-(β-2'-pyridylethyl)-1,2-benzisothiazol-3-one hydrochloride], 100%; that for `O=c1c2ccc(Cl)cc2sn1CCc1ccccn1` [Example 11, 6-chloro-2-(β-2'-pyridylethyl)-1,2-benzisothiazol-3-one hydrochloride], 100%.

As to `O=c1c2cc(Cl)c(Cl)cc2sn1CCc1ccccn1` [Example 12], the inhibition at 100 µM turned out to be 100%. The same measure, in the same setting: the result for `O=c1c2ccccc2sn1CCN1CC2CCC(CC2)C1` [Example 13, 2-β-(3-azabicyclo[3.2.2]non-3-yl)ethyl-1,2-benzisothiazol-3-one hydrochloride] reads 100%; that for `O=c1c2cc(Cl)c(Cl)cc2sn1CCN1CC2CCC(CC2)C1` [Example 14, 5,6-dichloro-2-β-(3-azabicyclo[3.2.2]non-3-yl)ethyl-1,2-benzisothiazol-3-one], 100%. On the same count and under the same terms, the result for `COc1cc2sn(CCN3CC4CCC(CC4)C3)c(=O)c2cc1OC` [Example 15, 5,6-dimethoxy-2-β-(3-azabicyclo[3.2.2]non-3-yl)ethyl 1,2-benzisothiazol-3-one] reads 92%; that for `O=c1c2cc(Cl)c(Cl)cc2sn1CCN1CCCC1` [Example 16, 5,6-dichloro-2-β-(1-pyrrolidinyl)ethyl-1,2-benzisothiazol-3-one], 100%; that for `COc1cc2sn(CCN3CCCC3)c(=O)c2cc1OC` [Example 18], 91%. On the same count and under the same terms, with `O=c1c2ccccc2sn1CCN1CCCCCC1` [Example 19, 2-β-(homopiperidin-1-yl)ethyl-1,2-benzisothiazol-3-one hydrochloride] the figure was 92%; with `O=c1c2ccccc2sn1CCN1CCc2ccccc2C1` [Example 20, 2-β-(N-tetrahydroisoquinolylethyl)-1,2-benzisothiazol-3-one hydrochloride], 100%.

As to `O=c1c2ccccc2sn1CCn1sc2ccccc2c1=O` [Example 21, 1,2-bis(1,2-benzisothiazol-3-on-2-yl)ethane], the inhibition at 100 µM amounted to 91%. Same read-out and setting: with `O=c1c2ccccc2sn1CNc1ccncc1` [Example 23, 2-[4'-pyridylaminomethyl]-1,2-benzisothiazol-3-one] the figure was 23%.

Take `CC1CCCCN1CCn1sc2ccccc2c1=O` (stereo not shown) [Example 27]: the inhibition at 100 µM was found to be 100%.

The test is the same for the next values; noted with them: Homo sapiens, 0.05 h, read-out: % Inhibition of the platelet aggregation response to collagen.
For the compound `O=c1c2ccccc2sn1-c1nccs1` [Example 8, 2-(thiazol-2-yl)-1,2-benzisothiazol-3-one], the inhibition at 100 µM was found to be 100%.
